# Assays:
# [1] = tested on: JIMT-1 breast cancer cell line; assay: Flow cytometry DNA content (PI), cell cycle arrest and cell death, JIMT-1; format: cell-based; conditions: JIMT-1, 5 and 10 μM, 72 hours, flow cytometer
# Method: The degree of cancer cell death by the indazole derivative of the present disclosure was measured by analyzing DNA content using a flow cytometer. Cells were treated with compound 18c (formula 1-16) and compound 11k (formula 1-7) at concentrations of 0 (DMSO), 5, and 10 μM for 72 hours, and then the cells were harvested. Thereafter, the cells were fixed with 95% ethanol containing 0.5% Tween-20 for 24 hours, and stained with propidium iodide (PI, 50 μg/mL) and RNase (50 μg/mL) for 30 minutes. Afterwards, the degree of cancer cell death was analyzed using a flow cytometer.
# In general, the cell cycle is divided into G1 (cell growth phase)—S(cell replication phase)—G2/M (cell division phase) according to the content of intracellular DNA. […] The results of this cell death within the cell cycle are manifested by the Sub-G1 region, and the percentage of Sub-G1 induced by the indazole derivative of the present disclosure is shown numerically in FIGS. 5B and 6B.
# [2] = tested on: BT474 cell line; assay: MTS cell viability assay in BT474 cell line; format: cell-based; conditions: Homo sapiens, BT-474, BT474, 72 hours
# Method: (§1) Specifically, cells were attached to 96 well plates for 24 hours, and then treated with the indazole derivatives for 72 hours. Thereafter, the cells were chromogenized with MTS for 4 hours, and the absorbance was measured at 490 nm using a Spectramax Plus384 microplate analyzer.
# HER2 positive breast cancer (HER2+BC) cell lines, BT474 (cell seeding numbers: 2.4 (BT474)×10^4 cells/wells (confluency≥50%)) sensitive to trastuzumab and JIMT-1 (cell seeding numbers: 1.0 (JIMT-1)×10^4 cells/wells (confluency>30%)) resistant to trastuzumab were used in the experiment.
# (§2) In this case, the cell lines were treated with the benzopyran derivative at a concentration of 10 μM for 72 hours and the cell lines were treated with the indazole derivative at a concentration of 10 μM for 72 hours, and then the cell viability was measured.
# [3] = Toxicity in JIMT-1 xenograft mice (body weight, H&E of liver, kidney, lung, AST, ALT, BUN); format: in vivo, Balb/c nude mice; conditions: intraperitoneally, 30 mg/kg compound 18c or 20 mg/kg compound 11k
# Method: 6-week-old mice (Balb/c nude mice) were purchased and raised in an environment where they could freely access food and water. The mice were acclimated for more than 7 days, and then were transplanted with tumor cells. Tumor cells were injected subcutaneously into the mammary gland tissue of JIMT-1 breast cancer cells at a density of 3×10^6 cells/mL per individual, and when the tumor reached a size of 50 to 100 mm^3, the indazole derivative of the present disclosure was administered intraperitoneally, and the tumor growth was measured. The experimental groups were treated with either 30 mg/kg of compound 18c (formula 1-16) or 20 mg/kg of compound 11k (formula 1-7), and tumor volume, tumor weight, body weight, and the like were measured every 3 to 4 days from the time of administration until the end of the study.
# To determine whether the treatment with the indazole derivatives of the present disclosure would affect normal organs, a toxicity analysis was performed.
# The mouse model was sacrificed. The liver, kidney, and lung tissues were fixed in 4% paraformaldehyde for 24 hours, washed in PBS buffer, and then embedded in paraffin. Tissue samples were sectioned and stained with H&E (hematoxylin & eosin). […]
# [4] = tested on: MDA-MB-231 cell line; assay: MTS cell viability assay in MDA-MB-231 cell line; format: cell-based; conditions: Homo sapiens, MDA-MB-231, 72 hours
# Method: A HER2 positive breast cancer (HER2+BC) cell line, JIMT-1 (cell seeding numbers: 1.0 (JIMT)×10^4 cells/wells (confluency≤30%)) and a triple-negative breast cancer (TNBC) cell line, MDA-MB-231 (cell seeding numbers: 1.0 (M231)×10^4 cells/wells (confluency≤30%) were used in the experiment.
# The above cell lines were cultured in Dulbecco's Modified Eagle's Medium (DMEM) or Eagle's minimum Essential Medium (MEM) each containing 10% fetal bovine serum (FBS), streptomycin-penicillin (100 U/ml), and Fungizone (0.625 μg/ml), respectively under 5% CO2, 37° C. environment.
# The JIMT-1 cell line and MDA-MB-231 cell line were treated with the indazole derivatives (formulas 1-1 to 1-53) of the present disclosure at a concentration of 10 μM each for 72 hours, and then cell viability was measured using the MTS assay technique. The control group was treated with DMSO as an untreated group (0 μM) of the indazole derivative of the present disclosure.
# as §1, with “analyzer. The significance between the control group and the experimental group was verified using an unpaired Students t-test (*p<0.01; DMSO control vs indazole series).” for “analyzer.”
# HER2-positive breast cancer cell lines, BT474 (cell seeding numbers: 2.0 (JIMT)×10^4 cells/wells (confluency≤30%)) sensitive to trastuzumab, and JIMT-1 (cell seeding numbers: 1.0 (JIMT)×10^4 cells/wells (confluency≤30%)) resistant to trastuzumab, and a triple-negative breast cancer cell line, MDA-MB-231 (cell seeding numbers: 1.0 (M231)×10^4 cells/wells (confluency≤30%)) were used.
# The BT474, JIMT-1, and MDA-MB-231 cell lines were treated with compound 18c (formula 1-16) and compound 11k (formula 1-7) at concentrations of 0 (DMSO), 0.1, 0.5, 1, 5, 10, and 20 μM, respectively, for 72 hours, and then cell viability was measured using the MTS assay technique as explained by the description of Experimental Example 1. The cell viability experiment was performed independently three times, and the significance was verified by a One-Way Anova, Bonferroni post-hoc test (*p<0.01; DMSO control vs. compound 18c or compound 11k).
# In addition, the JIMT-1 and MDA-MB-231 cell lines were treated with compound 11m (formula 1-9), 11n (formula 1-10) and compound 12k (formula 1-13) at concentrations of 0 (DMSO), 0.1, 1, 5, 10, and 20 μM, respectively, for 72 hours, and then cell viability was measured.
# Meanwhile, triple-negative breast cancer cell lines MDA-MB-231 and BT549, and a mouse breast cancer cell line 4T1 were treated with compound 38 (formula 1-30) at concentrations of 0 (DMSO), 0.1, 0.5, 1, 2, 5, 10, and 20 μM for 72 hours, and then cell viability was measured.
# as §2, with “The indazole derivative of the present disclosure was compared with the benzopyran derivative of the related art (KR 10-2304532) in terms of cell viability of the BT474, JIMT-1, and MDA-MB-231 cell lines (Table 1). In” for “In”
IC50 [2] [µM],IC50 [4] [µM],Compound,G2/M phase of the cell cycle [1],cell death (Sub-G1 population) [1],body weight [3]
8.48,2.69,"COc1c(C(=O)Nc2ccc3c(C)nn(CCC4CCN(C)CC4)c3c2)ccc2c1C=CC(C)(C)O2 [compound 11k, 5-Methoxy-2,2-dimethyl-N-(3-methyl-1-(2-(1-methylpiperidin-4-yl)ethyl)-1H-indazol-6-yl)-2H-chromene-6-carboxamide]",arrested the G2/M phase,significantly induced cell death,maintained
4.98,6.84,"COCCn1nc(NC(=O)c2ccc3c(c2OC)C=CC(C)(C)O3)c2ccccc21 [compound 18c, 5-Methoxy-N-(1-(2-methoxyethyl)-1H-indazol-3-yl)-2,2-dimethyl-2H-chromene-6-carboxamide]",arrested the G2/M phase,significantly induced cell death,maintained

# — patent publication US20260167629A1, “NOVEL INDAZOLE DERIVATIVE OR PHARMACEUTICALLY ACCEPTABLE SALT THEREOF, AND USE THEREOF” (KOREA UNIVERSITY RESEARCH AND BUSINESS FOUNDATION, priority 2022, published 2026)
